Reference: ChEMBL document CHEMBL1201862, “PubChem BioAssay data set” (2004)
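Test compounds were applied to cells in 96-well plates for 48 hours at 5 doses. Here, GI50 denotes the concentration required for 50% inhibition of growth.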 The source made the active and inactive calls. Rule as the data show it: active = GI50 up to about 1.1 µM and inactive = higher.

What was measured:
Assay in all cases: NCI tumour cell line growth inhibition, 48 h
[1] = test system: HT-29
[2] = test system: SF-539
[3] = test system: SNB-19
[4] = test system: SK-MEL-28
[5] = test system: HCC 2998
[6] = test system: OVCAR-8
[7] = test system: M14
[8] = test system: SW-620
[9] = test system: NCI-H522
[10] = test system: UACC-257
[11] = test system: RXF 393
[12] = test system: SN12C
[13] = test system: K562
[14] = test system: COLO 205
[15] = test system: OVCAR-3
[16] = test system: MOLT-4
[17] = test system: HOP-92
[18] = test system: U-251
[19] = test system: Malme-3M

Measured: GI50

COc1cccc(-c2cc(C(=O)Nc3ccc(Cl)cc3)nc(N)n2)c1
inactive: [1] 45.5 µM | [2] 40 µM | [3] 70.8 µM | [4] 86.9 µM | [5] 87.7 µM | [6] 98.9 µM | [7] 37.3 µM | [8] 36.7 µM | [9] 32.4 µM | [10] 81.1 µM | [11] 39.4 µM | [12] 57.7 µM | [13] 40.5 µM | [14] 21.4 µM | [15] 35.3 µM | [16] 38.7 µM | [17] > 100 µM | [18] 60.8 µM | [19] 57.7 µM

CC1NOC(=O)C1/N=N/c1ccc(Cl)cc1Cl (configuration not stated)
inactive: [1] 32.8 µM | [2] 47.4 µM | [3] 22.6 µM | [4] 38.9 µM | [5] 29.9 µM | [6] 31.6 µM | [7] 21 µM | [8] 7.98 µM | [9] 17.8 µM | [10] 24.5 µM | [11] 20.7 µM | [12] 21.6 µM | [13] 25.2 µM | [14] 20 µM | [15] 16.4 µM | [16] 19.6 µM | [17] 19.8 µM | [18] 18.5 µM | [19] 25.5 µM

Clc1ccc(-n2nnc(C3=NCCCN3)c2-c2ccccc2)cc1
inactive: [1] > 100 µM | [2] > 100 µM | [3] > 100 µM | [4] > 100 µM | [5] > 100 µM | [6] > 100 µM | [7] > 100 µM | [8] > 100 µM | [9] > 100 µM | [10] > 100 µM | [11] > 100 µM | [12] > 100 µM | [13] > 100 µM | [14] 67.3 µM | [15] > 100 µM | [16] > 100 µM | [17] > 100 µM | [18] > 100 µM | [19] > 100 µM

CC(=O)Nc1cccc(N2C(=O)/C(=C\c3cccc(Oc4ccccc4)c3)S(=O)(=O)C2c2ccccc2)c1 (configuration not stated)
inactive: [1] 64.9 µM | [2] 36 µM | [3] > 100 µM | [4] > 100 µM | [5] > 100 µM | [6] 37.1 µM | [7] 90.6 µM | [8] 37.8 µM | [9] 69 µM | [10] > 100 µM | [11] > 100 µM | [12] > 100 µM | [13] 26.7 µM | [14] 59.7 µM | [15] 45.4 µM | [16] 16.1 µM | [17] 43.3 µM | [18] 65.6 µM | [19] > 100 µM

CCN(CC)CC(C(=O)Nc1c(C)cccc1C)/C(C)=N\NC(=O)C[N+](C)(C)C (configuration not stated)
inactive: [1] > 100 µM | [2] > 100 µM | [3] > 100 µM | [4] > 100 µM | [5] > 100 µM | [6] > 100 µM | [7] > 100 µM | [8] > 100 µM | [9] > 100 µM | [10] > 100 µM | [11] > 100 µM | [12] > 100 µM | [13] > 100 µM | [14] > 100 µM | [15] > 100 µM | [16] > 100 µM | [17] > 100 µM | [18] > 100 µM | [19] > 100 µM

CCOC(=O)c1sc2nc(SC)nc(Nc3ccc4c(c3)OCCCO4)c2c1N
inactive: [1] 32.8 µM | [2] 14.3 µM | [3] > 100 µM | [4] > 100 µM | [5] 25.2 µM | [6] 11.4 µM | [7] 17.3 µM | [8] 17.5 µM | [9] 3.3 µM | [10] 7.82 µM | [11] 11.8 µM | [12] > 100 µM | [13] 9.04 µM | [14] 41.5 µM | [15] 16.5 µM | [16] 2.55 µM | [17] 61.1 µM | [18] 46.5 µM | [19] 16.7 µM

COc1ccc(-c2cc(-c3ccccc3)c(C#N)c(=O)[nH]2)cc1
inactive: [1] > 100 µM | [2] > 100 µM | [3] > 100 µM | [4] > 100 µM | [5] > 100 µM | [6] > 100 µM | [7] > 100 µM | [8] > 100 µM | [9] > 100 µM | [10] > 100 µM | [11] > 100 µM | [12] > 100 µM | [13] > 100 µM | [14] > 100 µM | [15] > 100 µM | [16] > 100 µM | [17] > 100 µM | [18] > 100 µM | [19] > 100 µM

Cc1ccc(C)c(NC(=O)c2cc(-c3ccc([N+](=O)[O-])cc3)nc(N)n2)c1
inactive: [1] > 100 µM | [2] > 100 µM | [3] > 100 µM | [4] > 100 µM | [5] > 100 µM | [6] > 100 µM | [7] > 100 µM | [8] > 100 µM | [9] > 100 µM | [10] > 100 µM | [11] > 100 µM | [12] > 100 µM | [13] > 100 µM | [14] > 100 µM | [15] > 100 µM | [16] > 100 µM | [17] > 100 µM | [18] > 100 µM | [19] > 100 µM
